Measured values: PubChem BioAssay AID1648 (Sanford-Burnham Center for Chemical Genomics, 2009)
The source made the active and inactive calls. No rule for the calls is given here.

molecular target: Serine/threonine-protein kinase mTOR (Homo sapiens) (UniProt P42345); experiment: mTOR FRB domain ligand binding – biophysical, NMR (AID 1648); conditions: NMR binding to FRB domain, chemical shift
Sequence (P42345 2015-2114): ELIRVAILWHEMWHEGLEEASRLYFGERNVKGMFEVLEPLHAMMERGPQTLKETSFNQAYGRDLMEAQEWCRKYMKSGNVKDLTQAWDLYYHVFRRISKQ

| SMILES | Kd |
| --- | --- |
| Cc1nc(NC(=O)c2cccnc2)ccc1Br | > 4 mM (inactive) |
| OCc1ccccc1CN1CCOCC1 | > 4 mM (inactive) |
| O=C(O)c1cccnc1Oc1ccccc1 | > 4 mM (inactive) |
| CN1CCC(NC(=O)c2ccccc2[N+](=O)[O-])CC1 | > 4 mM (inactive) |
| Cc1cc2cc3c(C)cc(=O)oc3c(C)c2o1 | > 4 mM (inactive) |
| C=C1CCC2C(CC2(C)C)C(=O)CCC1O (stereo not given) | > 4 mM (inactive) |
| C/C(=C\CO)CC[C@H](C)CCC[C@H](C)CCCC(C)C | > 4 mM (inactive) |
| O=c1ccc2cc(O[C@@H]3O[C@H](CO)[C@@H](O)[C@H](O)[C@H]3O)c(O)cc2o1 | > 4 mM (inactive) |
| O=C(O)C(CO)c1ccccc1 (stereo not given) | > 4 mM (inactive) |
| COCCn1cnc2cc(C)c(C)cc21 | > 4 mM (inactive) |
| O=C1NC(=O)C(=Cc2ccccc2)C(=O)N1 | > 4 mM (inactive) |
| NCCN=C1NS(=O)(=O)c2ccccc21 | > 4 mM (inactive) |
| O=C(Nc1nnc(-c2cccnc2)o1)c1ccccc1F | > 4 mM (inactive) |
| NCc1ccc(CN2CCOCC2)cc1 | > 4 mM (inactive) |
| COC(=O)c1cccc(C(F)(F)F)c1 | > 4 mM (inactive) |
| CC1CCN(C(=O)c2ccc(NS(C)(=O)=O)cc2)CC1 | > 4 mM (inactive) |
| COc1cc(C(=O)NCC2CCCO2)cc(OC)c1OC (stereo not given) | > 4 mM (inactive) |
| Nc1ncnc2c1ncn2CCOc1ccccc1 | > 4 mM (inactive) |
| CC(=O)NC(C)C12CC3CC(CC(C(=O)O)(C3)C1)C2 (stereo not given) | > 4 mM (inactive) |
| Cc1cc(C(=O)Nc2ccccn2)no1 | > 4 mM (inactive) |
| CN1CCC(=NNC(=O)c2ccco2)CC1 | > 4 mM (inactive) |
| O=c1[nH]nc(Cc2ccncc2)c2ccccc12 | > 4 mM (inactive) |
| O=C1c2ccccc2C(=O)N1/N=C/c1ccc[nH]1 | > 4 mM (inactive) |

| SMILES | Kd |
| --- | --- |
| NCc1csc(-c2ccccc2)n1 | > 4 mM (inactive) |
| Cc1nnsc1C(=O)N(C)c1ccccc1 | > 4 mM (inactive) |
| O=C1NC(=O)C(c2ccccc2)C(=O)N1 | > 4 mM (inactive) |
| Cn1c2ccccc2n2c(=S)[nH]nc12 | > 4 mM (inactive) |
| Cc1ccc2c(c1)CCCN2C(=O)c1ccncc1 | > 4 mM (inactive) |
| S=c1[nH]ncn1-c1ccccc1 | > 4 mM (inactive) |
| Cc1cc[n+](-c2nc([O-])sc2C=O)cc1 | > 4 mM (inactive) |
| CC(=O)c1ccc[nH]1 | > 4 mM (inactive) |
| Cc1c(C(=O)NC2=NCCS2)oc2ccccc12 | > 4 mM (inactive) |
| NC(=O)CN1CC(c2ccccc2)CC1=O (stereo not given) | > 4 mM (inactive) |
| CCOC(=O)c1c(SC)nc(=O)[nH]c1C | > 4 mM (inactive) |
| Cc1nnsc1-c1onc(C)c1C(=O)O | > 4 mM (inactive) |
| O=C1OC(N2CCOCC2)c2ccccc21 (stereo not given) | > 4 mM (inactive) |
| CCn1c(=O)cc(N2CCC3(CC2)OCCO3)[nH]c1=O | > 4 mM (inactive) |
| O=C(c1cc(Cl)cc(Cl)c1)N1CCOCC1 | > 4 mM (inactive) |
| CN(C)c1oc(-c2ccccc2Cl)nc1C#N | > 4 mM (inactive) |
| O=C1NC(=O)C2C3C=CC(O3)C12 (stereo not given) | > 4 mM (inactive) |
| COC(=O)Nc1nc2c(C)cccc2s1 | > 4 mM (inactive) |
| c1ccc(-c2csc(Nc3cccnc3)n2)nc1 | > 4 mM (inactive) |
| COc1c(O)cc2c(c1O)[C@H]1O[C@H](CO)[C@@H](O)[C@H](O)[C@@H]1OC2=O | > 4 mM (inactive) |
| CC1CCC2(OC1)OC1CC3C4CCC5C[C@@H](O)CCC5(C)C4=CCC3(C)C1[C@@H]2C (stereo not given in full) | > 4 mM (inactive) |
| COc1cccc(NC(=O)c2cnn(C)c2Cl)c1 | > 4 mM (inactive) |
| O=c1oc2ccccc2cc1O | > 4 mM (inactive) |

| SMILES | Kd |
| --- | --- |
| Cc1cc2ncc(C(=O)Nc3ccccc3)c(C)n2n1 | > 4 mM (inactive) |
| O=C(O)c1cccc(-n2cccc2)c1 | > 4 mM (inactive) |
| Cc1nn(C)c2sc(CO)cc12 | > 4 mM (inactive) |
| Cc1ccc(/C=C/C(=O)O)cc1S(=O)(=O)NCCO | > 4 mM (inactive) |
| NC(=O)Cn1nc(-c2ccco2)ccc1=O | > 4 mM (inactive) |
| NC(=O)Cn1cnc2c(cnn2-c2ccccc2)c1=O | > 4 mM (inactive) |
| COc1ccc2c(c1)OCc1c-2oc2cc(OC)ccc12 | > 4 mM (inactive) |
| O=C(/C=C/c1ccco1)NC1=NCCS1 | > 4 mM (inactive) |
| COC1C=CC23c4cc5c(cc4CN(CC2O)[C@@H]3C1)OCO5 (stereo not given in full) | > 4 mM (inactive) |
| COCc1nc(-c2cc(Br)ccc2OC)no1 | > 4 mM (inactive) |
| Cn1cnc2c1c(=O)[nH]c(=O)n2C | > 4 mM (inactive) |
| Cc1occc1C(=O)NC1CCN(C)CC1 | > 4 mM (inactive) |
| O=C1O[C@H](C(O)CO)C(O)=C1O (stereo not given in full) | > 4 mM (inactive) |
| Oc1ccc(C(=S)N2CCOCC2)cc1 | > 4 mM (inactive) |
| COc1ccc2cnn(-c3ccccc3)c(=O)c2c1OC | > 4 mM (inactive) |
| Cc1occc1C(=O)Nc1nccs1 | > 4 mM (inactive) |
| Cc1nc(NCc2ccco2)nc2c1C(=O)CC(C)C2 (stereo not given) | > 4 mM (inactive) |
| CC(C)=CCOc1c2occc2cc2ccc(=O)oc12 | > 4 mM (inactive) |
| COc1ccccc1/C=C\C(=O)O | > 4 mM (inactive) |
| COc1ccccc1NC(=O)C1CCC(=O)N1 (stereo not given) | > 4 mM (inactive) |
| COc1cc(/C=C/C(=O)O)ccc1O | > 4 mM (inactive) |
| COC(=O)CCSCC(=O)Nc1nccs1 | > 4 mM (inactive) |
| CC(C)CCCC(C)[C@H]1CCC2C3CC=C4CC(=O)CC[C@]4(C)C3CC[C@@]21C (stereo not given in full) | > 4 mM (inactive) |

| SMILES | Kd |
| --- | --- |
| O=C(O)CCCCCCCC(=O)O | > 4 mM (inactive) |
| O=C1CSC(=O)N1CN1CCCC1 | > 4 mM (inactive) |
| Fc1ccc2onc(C3CCNCC3)c2c1 | > 4 mM (inactive) |
| COc1ccccc1-c1c(C)nn2c(C)c(C(C)=O)cnc12 | > 4 mM (inactive) |
| NC(=O)Cn1nc2c3c(cccc3c1=O)-c1ccccc1-2 | > 4 mM (inactive) |
| Cc1onc(-c2ccccc2)c1C(=O)O | > 4 mM (inactive) |
| CC(=O)c1cccc(N=C2NC(=O)CS2)c1 | > 4 mM (inactive) |
| O=C(O)CC1C(=O)NCCN1Cc1cccs1 (stereo not given) | > 4 mM (inactive) |
| Cc1nccc(-c2cccc(N)c2)n1 | > 4 mM (inactive) |
| Cc1cn(C(=O)CN2C(=O)c3ccccc3C2=O)c(C)n1 | > 4 mM (inactive) |
| O=C1CNC(=O)N1c1cccc(Cl)c1 | > 4 mM (inactive) |
| N#CCCn1c(=O)oc2ccccc21 | > 4 mM (inactive) |
| Nc1ccc(-c2cnco2)cc1 | > 4 mM (inactive) |
| O=[N+]([O-])c1c[n+]([O-])n(-c2ccccc2)n1 | > 4 mM (inactive) |
| O=S(=O)(c1cccc2cccnc12)N1CCOCC1 | > 4 mM (inactive) |
| Cc1cc(=O)oc2cc(O)c(O)cc12 | > 4 mM (inactive) |
| O=S(=O)(Nc1cccnc1Cl)c1ccccc1 | > 4 mM (inactive) |
| Clc1ccc(SCCn2cncn2)cc1 | > 4 mM (inactive) |
| CC[C@@]1(O)C[C@H](O)c2c(cc3c(c2O)C(=O)c2c(O)ccc(O)c2C3=O)[C@H]1C(=O)OC | > 4 mM (inactive) |
| CNC(=O)n1ccc(C(=O)N2CCCCC2)n1 | > 4 mM (inactive) |
| NC(=O)CSc1nc2ccccc2c(=O)[nH]1 | > 4 mM (inactive) |
